Experimental data: ChEMBL document CHEMBL3272086, “Antimalarials. 9. Methylthio- and methylsulfonyl-substituted 9-phenanthrenemethanols” (1976)
Calls of active or inactive are those of the source. The calls are words filed in the database; no cut-off is given here.

What was measured:
[1] = test system: Plasmodium berghei; assay: Antimalarial activity against Plasmodium berghei infected in mouse assessed as change in mean survival time at 40 mg/kg, sc administered 72 hrs post infection as single dose (reference value: 6.2 days); format: functional; details: route subcutaneous
[2] = test system: Plasmodium berghei; assay: Antimalarial activity against Plasmodium berghei infected in mouse assessed as cure from disease at 320 mg/kg, sc administered 72 hrs post infection as single dose measured post 60 days; format: functional, organism-based; design: dose 320 mg/kg
[3] = test system: Plasmodium berghei; assay: Antimalarial activity against Plasmodium berghei infected in mouse assessed as change in mean survival time at 20 mg/kg, sc administered 72 hrs post infection as single dose (reference value: 6.2 days); format: functional; details: route subcutaneous
[4] = test system: Plasmodium berghei; assay: Antimalarial activity against Plasmodium berghei infected in mouse assessed as change in mean survival time at 80 mg/kg, sc administered 72 hrs post infection as single dose (reference value: 6.2 days); format: functional; details: route subcutaneous
[5] = test system: Plasmodium berghei; assay: Antimalarial activity against Plasmodium berghei infected in mouse assessed as change in mean survival time at 160 mg/kg, sc administered 72 hrs post infection as single dose (reference value: 6.2 days); format: functional; details: route subcutaneous
[6] = test system: Plasmodium berghei; assay: Antimalarial activity against Plasmodium berghei infected in mouse assessed as change in mean survival time at 320 mg/kg, sc administered 72 hrs post infection as single dose (reference value: 6.2 days); format: functional; details: route subcutaneous
[7] = test system: Plasmodium berghei; assay: Antimalarial activity against Plasmodium berghei infected in mouse assessed as cure from disease at 160 mg/kg, sc administered 72 hrs post infection as single dose measured post 60 days; format: functional, organism-based; design: dose 160 mg/kg

With `CCCCN(CCCC)CC(O)c1cc2cc(S(C)(=O)=O)ccc2c2cc(Cl)c(Cl)cc12.Cl` (stereo not given) the MST [1] was 8.5 days, the Activity [2] was “Active” and the MST [3] was 4.9 days.
With `CCCCN(CCCC)CC(O)c1cc2cc(S(C)(=O)=O)ccc2c2cc(S(C)(=O)=O)ccc12.Cl` (stereo not given) the MST [4] was 0.3 days, the MST [1] was 0.1 days and the MST [5] was 0.3 days. For the same compound, the MST [6] was 0.3 days.
For `CCCCN(CCCC)CC(O)c1cc2cc(Br)ccc2c2cc(S(C)(=O)=O)ccc12.Cl` (stereo not given), the MST [4] was 10.8 days, the MST [1] was 1.2 days and the MST [3] was 0.6 days.
For `CCCCN(CCCC)CC(O)c1cc2cc(Br)ccc2c2cc(SC)ccc12.Cl` (stereo not given), the MST [4] was 9.5 days, the MST [1] was 8.6 days and the MST [3] was 2.8 days.
For `CCCCN(CCCC)CC(O)c1cc2cc(SC)ccc2c2cc(Cl)c(Cl)cc12.Cl` (stereo not given), the MST [1] was 10.3 days, the Activity [7] was “Active” and the MST [3] was 9.1 days.
With `CCCCN(CCCC)CC(O)c1cc2cc(SC)ccc2c2cc(SC)ccc12.Cl` (stereo not given) the MST [4] was 11.5 days, the MST [1] was 5.9 days and the MST [5] was 16.1 days. The Activity [2] was “Active” and the MST [3] was 0.7 days.
In the case of `CCCCN(CCCC)CC(O)c1cc2cc(Cl)cc(Cl)c2c2cc(SC)ccc12.Cl` (stereo not given), the Activity [7] is reported as “Active”, the Activity [2] is reported as “Active” and the MST [3] is reported as 10.5 days.
`CCCCN(CCCC)CC(O)c1cc2cc(SC)ccc2c2c(Cl)c(Cl)ccc12.Cl` (stereo not given) showed an MST [1] of 10.7 days and an MST [3] of 9.3 days.
In the case of `CCCCN(CCCC)CC(O)c1cc2cc(S(C)(=O)=O)ccc2c2c(Cl)c(Cl)ccc12.Cl` (stereo not given), the MST [4] is reported as 14.9 days, the MST [1] is reported as 7.7 days and the Activity [2] is reported as “Active”. For the same compound, the MST [3] was 4.7 days.
